# Laboratory results reported in patent publication US20210346414A1, “APPLICATION OF GLYCOSIDES IN THE PREPARATION OF DRUGS FOR PREVENTING AND TREATING DIABETES COMPLICATIONS” (CHENGDU SINNOCEAN BIOTECHNOLOGY CO., LTD., priority 2018, published 2021).
# Values joined by “and” are separate entries in the source; they are usually repeats but may differ in a detail not shown here. Equal values may be shown once.
# Key:
# Format in all cases: in vivo
# [1] = test system: spontaneous type II diabetic db/db mice; assay: Kidney histopathology grading after treatment; design: key to kidney / Basophilic changes in renal tubules / Monocyte infiltration / Hypertrophy of renal tubular epithelial cells / Dilation of the renal pelvis / Protein casts / Glomerular dilation / Glomerulosclerosis: “N” means normal tissue morphology and structure; “E” means changed tissue morphology and structure; “—” means no such pathological change; details: 12 weeks
# Method: (§1) Design of test groups: db/m group, db/db mice are divided into the following six groups: blank control group (no glucose), negative control group (model group), positive control group (350 mg/kg metformin), H2 low dose group (40 mg/kg), H2 medium dose group (80 mg/kg), H2 high dose group (160 mg/kg); • Number of animals: 12 mice for each group; • Sex: male;
# (§2) Administration frequency: once a day, for 12 weeks; db/m group, blank control group and negative control group: receiving distilled water; positive control group: positive drug metformin; other administration groups: receiving different dose of test drug H2, respectively; the day of administration was defined as the first day of the test.
# After completion of the test, the kidney was dissected and collected. The histopathological results of the kidney indicated the grades by referring to the principles and standards in literature
# (Fermented Milk has Anti-diabetic Effects: Anti-diabetic Effect of Fermented Milk Containing Conjugated Linoleic Acid on Type II Diabetes Mellitus, Korean J. Food Sci. An., Vol. 36, No. 2 (2016)).
# [2] = test system: spontaneous type II diabetic db/db mice; assay: Kidney function: blood urea nitrogen (UREA), blood creatinine (CREA) and renal index before and after administration; details: MEAN ± SEM
# Method: as §1, §2
# (1) Changes of blood urea nitrogen (UREA) and blood creatinine (CREA) as well as renal index before and after administration
# [3] = test system: spontaneous type II diabetic db/db mice; assay: Hypoglycemic effect test: tail vein blood glucose during 12 weeks of dosing
# Method: as §1, §2
# Sampling frequency: blood glucose was detected once every 2 weeks after grouping, and then after glucose was administrated, the blood glucose was further measured. Sampling site: tail vein; sampling volume: about 1 drop; blood glucose detection: real-time detection by blood glucose meter.
# [4] = test system: spontaneous type II diabetic db/db mice; assay: Prevention and treatment of retinopathy: pathological staining of eyeball, grading of retinal ganglion cell layer degeneration; design: key to Left eye / Right eye / Retinal degeneration, ganglion cell layer (right eye) / Retinal degeneration, ganglion cell layer (left eye): “N” means normal tissue morphology and structure; “E” means changed tissue morphology and structure; “—” means no such pathological change; details: 12 weeks
# Method: as §1, §2
# During the test period, compared with the animals in normal control group, the retinal ganglion cell layer of animals in each group had different degrees of degeneration except for the test drug H2 high-dose group. According to the severity of the degeneration of the retinal ganglion cell layers, there were 0-4 grades according to the pathological grading principle in the literature
# (Fermented Milk has Anti-diabetic Effects: Anti-diabetic Effect of Fermented Milk Containing Conjugated Linoleic Acid on Type II Diabetes Mellitus, Korean J. Food Sci. An., Vol. 36, No. 2 (2016)). The larger the value, the more severe the disease.
# [5] = metformin 350 mg/kg oral gavage once a day, individual animals
# [6] = metformin 350 mg/kg oral gavage once a day, individual animals, grade
# [7] = metformin 350 mg/kg oral gavage once a day, 12 weeks
# [8] = metformin 350 mg/kg oral gavage once a day, MEAN ± SEM
# [9] = metformin 350 mg/kg oral gavage once a day, individual animals, grades 0-4, larger = more severe
compound,measurement,setting,value
"CN(C)C(=N)N=C(N)N [metformin, Metformin]",kidney,[1]; [5],E
same,Basophilic changes in renal tubules,[1]; [6],— (8×) and 1
same,Dilation of the renal pelvis,[1]; [6],—
same,Glomerular dilation,[1]; [6],—
same,Glomerulosclerosis,[1]; [6],1 and — (8×)
same,Hypertrophy of renal tubular epithelial cells,[1]; [6],—
same,Monocyte infiltration,[1]; [6],—
same,Proliferation of glomerular mesangum or mesangial cells,[1]; [6],1 (3×) and 2 (6×)
same,Protein casts,[1]; [6],—
same,Proliferation of glomerular mesangum or mesangial cells (in words),"[1]; metformin 350 mg/kg, no statistical difference vs. negative control group",showed the effect trend of alleviating the proliferation of glomerular mesangum or mesangial cells
same,Before administration CREA,"[2]; metformin 350 mg/kg group, before administration (baseline)",4.50 ± 1.38 µmol/L
same,Change rate of CREA,[2]; [7],0.83 ± 0.17
same,Renal index,[2]; [7],0.43 ± 0.03%
same,"Blood glucose concentration, Administrating for 15 days",[3]; [8],6.95 ± 0.57 mmol/L
same,"Blood glucose concentration, Administrating for 29 days",[3]; [8],8.30 ± 0.94 mmol/L
same,"Blood glucose concentration, Administrating for 43 days",[3]; [8],8.93 ± 1.15 mmol/L
same,"Blood glucose concentration, Administrating for 57 days",[3]; [8],8.92 ± 1.12 mmol/L
same,"Blood glucose concentration, Administrating for 72 days",[3]; [8],8.80 ± 1.11 mmol/L
same,"Blood glucose concentration, Administrating for one day",[3]; [8],13.78 ± 1.74 mmol/L
same,Hypoglycemic effect (in words),"[3]; metformin 350 mg/kg, vs. negative control group, from the 15th day, P<0.001",could significantly reduce the blood sugar of db/db mice
same,Left eye,[4]; [5],E (3×) and N (6×)
same,Right eye,[4]; [5],N (8×) and E
same,"Retinal degeneration, ganglion cell layer (left eye)",[4]; [9],2 (2×) and — (6×) and 1
same,"Retinal degeneration, ganglion cell layer (right eye)",[4]; [9],— (8×) and 1
same,Improvement of retinopathy (in words),"[4]; metformin 350 mg/kg, vs. negative control group",hardly improved the symptoms of retinopathy
